Tests used:
[1] = test system: Human keratinocytes; assay: 3H-thymidine incorporation by cultured keratinocytes (keratinocyte proliferation); format: cell-based
Description: Human keratinocytes, isolated from neonatal foreskin by trypsin treatment were grown in Dulbecco Modification Eagle (DME) Hams F12 (1:1) medium/10% fetal calf serum in the presence of irradiated 3T3 mouse fibroblasts for establishing dividing keratinocyte colonies. Cells were grown under the above condition until their second passage and kept frozen for future use. […] On day 7, when the cells were 80-90% confluent, they were trypsinized and plated in the serum-free medium for the various experiments.
The incorporation of ^3 H-thymidine by cultured keratinocytes was used as an assay of keratinocyte proliferation. Thymidine is one of four deoxynucleosides which are the monomeric units of DNA, the universal library of genetic information in the animal kingdom. Prior to cell division of a somatic cell such as a keratinocyte, the complete genome of the cell undergoing cell division is replicated. This involves large scale DNA synthesis by the cell and enables both daughter cells to receive identical copies of the genetic material. When ^3 H-thymidine is included in the culture media of keratinocytes which are synthesizing DNA in preparation for cell division then the labelled nucleoside is incorporated into the newly synthesized DNA. The extent of incorporation of ^3 H-thymidine into a population of cells is proportional to the rate of DNA synthesis by this population of cells and therefore an indication of their cellular proliferation.
Keratinocytes (that were cultured as described above) were plated in 24 well plates at a density of 40,000 cells per well in 1 ml media. After incubation for four days or until the cells were 60-70% confluent, the media was changed. Test compounds were added (in triplicate) to the wells 24 hours after the media change, and four hours later 1 μCi ^3 H-Thymidine in 50 μl media was added per well. Cells were incubated for a further 24 hours. Media was removed from the cells, 10% ice cold trichloroacetic acid (TCA) added and plates were incubated on ice for 30 minutes. Cells were washed five times with 5% TCA and allowed to dissolve in 500 μl 0.1M NaOH for at least one hour (usually overnight). The preparations were neutralized with 0.1M HCl; 50 μl of the cell preparation was used to determine total protein content. Disintegrations per minute (DPM) from ^3 H labelling of DNA was determined by liquid scintillation counting of 900 μl of the cell preparation. Thymidine incorporation results were expressed as DPM/μg protein.

[2] = test system: TGase I; assay: Transglutaminase (TGase I) ELISA in cultured keratinocytes, normalized to DNA content (keratinocyte differentiation); format: cell-based, human; conditions: for Mean TGase/DNA X 10^-4 ± S.D.: n = 3
Description: Human keratinocytes, isolated from neonatal foreskin by trypsin treatment were grown in Dulbecco Modification Eagle (DME) Hams F12 (1:1) medium/10% fetal calf serum in the presence of irradiated 3T3 mouse fibroblasts for establishing dividing keratinocyte colonies. Cells were grown under the above condition until their second passage and kept frozen for future use. Frozen second passage keratinocytes were thawed and plated into the above medium and grown for five days before they were switched to a serum-free MCDB 153-based medium keratinocyte growth medium (KGM) from Clonetics Corporation, San Diego, Calif., containing 0.15 mM Ca, or keratinocyte serum-free media (KSFM) from GIBCO containing 0.09 mM Ca). On day 7, when the cells were 80-90% confluent, they were trypsinized and plated in the serum-free medium for the various experiments.
During the process of terminal differentiation in the epidermis, a 15 nm thick layer of protein, known as the cornified envelope (CE) is formed on the inner surface of the cell periphery. The CE is composed of numerous distinct proteins which have been cross-linked together by the formation of N^ε -(γ-glutamyl) lysine isodipeptide bonds catalyzed by the action of at least two different transglutaminases (TGases) expressed in the epidermis. TGase I is expressed in abundance in the differentiated layers of the epidermis, especially the granular layer, but is absent in the undifferentiated basal epidermis. Thus TGase I is a useful marker of epidermal keratinocyte differentiation with high TGase I levels indicating a more differentiated state. An ELISA based TGase I assay, using a TGase I antibody, was used to assess the state of differentiation of the cultured keratinocytes in the examples that follow.
Keratinocytes (cultured as described above) were plated in 96 well plates at a density of 3,000 cells per well in 200 μl media. After incubation for four days the media was changed to media containing test compounds (six replicates per test). The cells were cultured for a further 72 hours after which time the media was aspirated and the plates stored at -70° C. Plates were removed from the freezer, and the cells washed with PBS. 100 μl sterile water was added and the cells were freeze fractured by freezing at -70° C. then thawing. The cells were incubated for one hour at room temperature (R/T) with PBS/3% BSA (wash buffer, bovine serum albumin), then rinsed with a fresh aliquot of wash buffer. Cells were incubated with 50 μl of primary antibodies monoclonal anti-human transglutaminase (IgG) obtained from Amersham (mouse) diluted 1:300 in wash buffer for one hour, 37° C. then rinsed two times with wash buffer. Cells were then incubated with 50 μl of secondary antibody (Feb fragment, peroxidase conjugated anti-mouse IgG obtained from Amersham) diluted 1:200 in wash buffer for one hour at 37° C., then rinsed two times with wash buffer. Cells were incubated with substrate solution (4 mg o-phenylene diamine and 3.3 μl 30% H2 O2 in 10 ml 0.1M citrate buffer pH 5.0) for five minutes, R/T, in darkness (under aluminum foil). The reaction was stopped by the addition of 50 μl 4N H2 SO4. The absorbance of samples was read at 492 nm in the plate reader. Out of the six replicates, four were treated with both antibodies, two were treated only with the secondary antibody (i.e., to determine background binding of enzyme conjugated Ab). TGase levels were determined by subtracting background from the readings from each treatment and determining mean ±s.d. for the replicates exposed to both Ab.
The level of TGase-1 detected after treatment of the cells could be influenced by cell number, i.e., the greater the number of cells the greater the level of TGase-1 detected. The level of TGase-1 was normalized to DNA content of the cells in the same well thus eliminating variation due to differences in cell number. […]

[3] = Examples 1-4, overall conclusion

effect on transglutaminase level / keratinocyte differentiation (in words) ([2]; Example 1, 2.5×10^-7 M, 2.5×10^-8 M and 2.5×10^-9 M): dose dependent | TGase/DNA (% Control) ([2]; Table 1B, 2.5 × 10^-7 M, 72 hours, 0.25 µM): 47% | Mean TGase/DNA X 10^-4 ± S.D. ([2]; Table 1B, 2.5 × 10^-7 M, 72 hours): 1.14 ± 0.22 X 10^-4 | TGase/DNA (% Control) ([2]; Table 1B, 2.5 × 10^-8 M, 72 hours, 0.025 µM): 77% | Mean TGase/DNA X 10^-4 ± S.D. ([2]; Table 1B, 2.5 × 10^-8 M, 72 hours): 1.89 ± 0.30 X 10^-4 | TGase/DNA (% Control) ([2]; Table 1B, 2.5 × 10^-9 M, 72 hours, 0.0025 µM): > 100% | Mean TGase/DNA X 10^-4 ± S.D. ([2]; Table 1B, 2.5 × 10^-9 M, 72 hours): 2.70 ± 0.59 X 10^-4 | TGase/DNA (% Control) ([2]; Table 2B and Example 2B text, 2.5×10^-8 M RA or retinol, 10^-8 M LAMEA, 10^-8 M bifonazole where named, 72 hour): 84% | mean TGase/DNA × 10^-4 ± s.d ([2]; Table 2B, 2.5 × 10^8 M [sic] RA or ROH, 10^8 M LA-MEA, 10^8 M Bifonazole where named, 72 hour, n = 6): 0.111 ± 0.023 × 10^-4 | TGase/DNA (% Control) ([2]; Table 3B and Example 3B, 2.5×10^-9 M RA or ROH, with 10^-8 M LADEA and/or 10^-8 M climbazole where named, 72 hour): 129% | mean TGase/DNA × 10^4 ± s.d ([2]; Table 3B, 2.5 × 10^9 M [sic] RA or ROH, with 10^8 M LA-DEA and/or 10^8 M Climbazole where named, 72 hour, n = 6): 1.96 ± 0.33 × 10^4
SMILES: CC1=C(/C=C/C(C)=C/C=C/C(C)=C/CO)C(C)(C)CCC1 [ROH, retinol]
effect on keratinocyte proliferation (in words) [1, 3]: completely ineffective at increasing keratinocyte proliferation | Thymidine incorporation (% control) ([1]; Table 1A, 2.5 × 10^-7 M, 24 hours, 0.25 µM): 106% | mean Thymidine incorp./μg protein ± s.d ([1]; Table 1A, 2.5 × 10^-7 M, 24 hours, n = 3): 2218 ± 73 DPM/μg protein | Thymidine incorporation (% control) ([1]; Table 1A, 2.5 × 10^-8 M, 24 hours, 0.025 µM): 97% | mean Thymidine incorp./μg protein ± s.d ([1]; Table 1A, 2.5 × 10^-8 M, 24 hours, n = 3): 2034 ± 46 DPM/μg protein | Thymidine incorporation (% control) ([1]; Table 1A, 2.5 × 10^-9 M, 24 hours, 0.0025 µM): 94% | mean Thymidine incorp./μg protein ± s.d ([1]; Table 1A, 2.5 × 10^-9 M, 24 hours, n = 3): 1977 ± 19 DPM/μg protein | Thymidine incorporation (% control) ([1]; Table 2A, 2.5 × 10^-9 M RA or ROH, with 10^-8 M LADEA and/or 10^-9 M Bifonazole where named, 24 hours): 111% | mean Thymidine incorp. μg protein ± s.d ([1]; Table 2A, 2.5 × 10^-9 M RA or ROH, with 10^-8 M LADEA and/or 10^-9 M Bifonazole where named, 24 hours, n = 3): 4856 ± 217 DPM/μg protein | Thymidine incorporation (% control) ([1]; Table 3A, 2.5 × 10^8 M [sic] ROH, with 10^8 M LADEA and/or 10^9 M Climbazole where named, 1440 min): 102% | mean Thymidine incorp/μg protein ± s.d ([1]; Table 3A, 2.5 × 10^8 M [sic] ROH, with 10^8 M LADEA and/or 10^9 M Climbazole where named, n = 3): 3788 ± 57 DPM/μg protein | Thymidine incorporation (% control) ([1]; Table 4, 2.5 × 10^9 M [sic] RA or ROH, with 10^8 M LAMEA and/or 10^8 M Clotrimazole where named, 24 hours): 113% | mean Thymidine incorp/μg protein ± s.d, normalized to control ([1]; Table 4, 2.5 × 10^9 M [sic] RA or ROH, with 10^8 M LAMEA and/or 10^8 M Clotrimazole where named, 24 hours, n = 3): 1.13 ± 0.09 | effect on keratinocyte TG1 level / differentiation (in words) ([2]; Example 2, 2.5×10^-8 M RA or retinol, 10^-8 M LAMEA, 10^-8 M bifonazole, 72 hour): Neither 2.5×10^-8 M retinol nor 10^-8 M LAMEA+10^-8 M bifonazole had an inhibitory effect on the keratinocyte TG1 level | effect on keratinocyte TG1 level / differentiation (in words) ([2]; Example 3, 2.5×10^-7 M RA, 2.5×10^-9 M retinol with 10^-8 M LADEA and/or climbazole, 72 hour): no inhibitory effect on the keratinocyte TG1 level | effect on keratinocyte differentiation (in words) [2, 3]: significantly less effective than retinoic acid at inhibiting keratinocyte differentiation
